Data on two compounds can be found in patent US7910739B2, “Acetylcholinesterase dual inhibitors” (priority 2003, dated 2011).

In general, IC50 refers to the concentration needed to halve the response being measured.

SMILES strings stand for the structures.

Series [1] deals with T1, AChE (from bovine erythrocytes) (Bos taurus, UniProt P23795).
T1 construct: 0.02 unit AChE (Sigma Chemical Co. from bovine erythrocytes); purchased Sigma Chemical Co; host or cells: bovine erythrocytes (natural source)
T1 sequence (P23795 other isoform, or with tags, fused parts or gaps): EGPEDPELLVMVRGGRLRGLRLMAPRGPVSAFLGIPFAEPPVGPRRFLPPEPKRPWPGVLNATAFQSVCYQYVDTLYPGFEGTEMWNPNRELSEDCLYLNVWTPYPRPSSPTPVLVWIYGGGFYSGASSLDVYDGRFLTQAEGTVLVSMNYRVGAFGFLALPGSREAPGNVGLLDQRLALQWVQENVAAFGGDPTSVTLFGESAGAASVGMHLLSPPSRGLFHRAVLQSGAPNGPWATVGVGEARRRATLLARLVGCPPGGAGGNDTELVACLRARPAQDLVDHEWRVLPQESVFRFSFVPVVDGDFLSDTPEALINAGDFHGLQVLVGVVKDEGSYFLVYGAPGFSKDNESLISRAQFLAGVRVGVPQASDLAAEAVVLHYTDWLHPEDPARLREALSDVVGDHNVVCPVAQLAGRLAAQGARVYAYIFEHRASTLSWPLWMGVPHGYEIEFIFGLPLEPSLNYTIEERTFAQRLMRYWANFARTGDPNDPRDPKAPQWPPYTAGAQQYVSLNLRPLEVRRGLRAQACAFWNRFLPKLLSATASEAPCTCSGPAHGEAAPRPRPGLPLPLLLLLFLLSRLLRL
The experiment in a line: biochemical. The class given is biochemical. The note with it: AChE from bovine erythrocytes, 30° C., pH 8; read-out: IC50 AChE. The procedure: Acetylcholinesterase (AChE) Inhibition (from Bovine Erythrocytes)
AChE inhibitory activity was evaluated at 30° C. by the colorimetric method reported by Ellman [Ellman, G. L.; Courtney, K. D.; Andres, B.; Featherstone, R. M. Biochem. Pharmacol. 1961, 7, 88-95]. The assay solution consisted of 0.1 M phosphate buffer pH 8, 0.3 mM 5,5′-dithiobis(2-nitrobenzoic acid) (DTNB, Ellman's reagent), 0.02 unit AChE (Sigma Chemical Co. from bovine erythrocytes), and 0.5 mM acetylthiocholine iodide as the substrate of the enzymatic reaction. The compounds tested were added to the assay solution and pre incubated with the enzyme for 5 min at 30° C. After that period, the substrate was added. […] The compound concentration producing 50% of AChE inhibition (IC50) was determined.

For another series, the target named is T2, BuChE from human serum (Homo sapiens, UniProt P06276).
T2 construct: 0.01 unit BuChE from human serum; from tissue; host or cells: human serum
T2 sequence (P06276 29-602): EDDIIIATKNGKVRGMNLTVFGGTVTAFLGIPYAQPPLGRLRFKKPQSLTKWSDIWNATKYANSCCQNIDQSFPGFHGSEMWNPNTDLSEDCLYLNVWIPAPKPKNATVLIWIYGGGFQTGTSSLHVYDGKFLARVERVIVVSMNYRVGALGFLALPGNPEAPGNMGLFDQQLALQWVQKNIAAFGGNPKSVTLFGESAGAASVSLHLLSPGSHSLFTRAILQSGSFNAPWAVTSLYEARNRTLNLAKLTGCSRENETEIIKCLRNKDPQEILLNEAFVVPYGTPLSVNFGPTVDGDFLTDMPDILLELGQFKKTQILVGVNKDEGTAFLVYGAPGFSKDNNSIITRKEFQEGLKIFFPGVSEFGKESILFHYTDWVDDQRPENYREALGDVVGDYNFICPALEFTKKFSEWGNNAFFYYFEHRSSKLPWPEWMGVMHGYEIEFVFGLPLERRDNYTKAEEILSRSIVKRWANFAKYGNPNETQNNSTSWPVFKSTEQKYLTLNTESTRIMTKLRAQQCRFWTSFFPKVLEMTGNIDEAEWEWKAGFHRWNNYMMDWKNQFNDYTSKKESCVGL
The experiment in a line: Butyrylcholinesterase (BuChE) inhibition, Ellman colorimetric method. The class given is biochemical. The note with it: BuChE from human serum, 30° C., pH 8; read-out: IC50 BuChE. The procedure:
Butyrylcholinesterase (BuChE) Inhibition (from Human Serum)
BuChE inhibitory activity was evaluated at 30° C. by the colorimetric method reported by Ellman. The assay solution consisted of 0.01 unit BuChE from human serum, 0.1 M sodium phosphate buffer pH 8, 0.3 mM 5,5′-dithiobis(2-nitrobenzoic acid) (DTNB, Ellman's reagent), and 0.5 mM butyrylthiocholine iodide as the substrate of the enzymatic reaction. Enzyme activity was determined by measuring the absorbance at 405 nm during 5 minutes with a microplate reader Digiscan 340T. The tested compounds were preincubated with the enzyme for 10 minutes at 30° C. The reaction rate was calculated with, at least, triplicate measurements. The IC50 is defined as the concentration of each compound that reduces a 50% the enzymatic activity with respect to that without inhibitor.
For orientation: Ellman's reagent forms a yellow product with free thiols.

In series [2] the test system is human neuroblastoma cell line SH-SY5Y. The experiment in a line: Toxicity measurement (LDH release). The class given is cell-based. Particulars: 24 hours exposure. The procedure:
The cytotoxicity effect of the molecules was tested in the human neuroblastoma cell line SH-SY5Y. These cells were cultured in 96-well plates in DULBECCO'S MOD EAGLE medium, supplemented with 10% fetal bovine serum and 1% penicillin/streptomycin, and grown in a 5% CO2 humidified incubator at 37° C.
The cells were plated at 10^4 cells for each well, at least, 48 hours before the toxicity measure. Cells were exposed for 24 hours to the compounds at different concentrations (from 10^−5 to 10^−9), quantitative assessment of cell death was made by measurement of the intracellular enzyme lactate dehydrogenase (LDH) (citotoxicity detection kit, Roche). The quantity of LDH was evaluated in a microplate reader Anthos 2010, at 492 and 620 nm. Controls were taken as 100% viability.
For orientation: Release of lactate dehydrogenase indicates damage to the cell membrane.

In a further series the target is AChE peripheral site (Bos taurus, UniProt P23795). The experiment in a line: Propidium competition (fluorescence). The class given is binding. The note with it: 10 μM AchE, 20 μM propidium iodide, pH 8.0. On the procedure:
Fluorescence was measured in a Fluostar optima plate reader (BMG). Measurements were carried out in 100 μl solution volume, in 96-well plates. The buffer used wad 1 mM Tris/HCl, pH 8.0. 10 μM AchE was incubated, at least 6 hours, with the molecules at different concentrations. 20 μM propidium iodide was added 10 min before fluorescence measurement. The excitation wavelength was 485 nm, and that of emission, 620 nm.

Series [3] concerns the target T3, β-amyloid-huAChE aggregation complex (Homo sapiens, UniProt P22303).
T3 construct: purchased Sigma-Aldrich (huAChE); rPeptide (Aβ1-40)
The experiment in a line: Inhibition of β-amyloid aggregation (Congo Red binding). In kind it is biochemical. Particulars: compound used at its IC50; Aβ1-40 0.1 mM, Aβ:huAChE 200:1, 48 hours. The procedure:
Inhibition of β-Amyloid Aggregation
The generation of AChE-Aβ complexes were carried out as described previously [Alvarez, A et al. J. Neurosci., 1998, 18, 3213-3223; Muñoz, F. J.; Inestrosa, N. C. FEBS Let., 1999, 450, 205-209]. Stock solutions of Aβ1-40 (rPeptide, Georgia USA) at 3.5 mM were dissolved in PBS (pH 7.4) after HFIP treatment to obtain monomeric starting material, according to manufacture's recommendations. For co-incubation experiments, 0.1 mM of peptide was mixed with human recombinant acetylcholinesterase (huAchE, Sigma-Aldrich), in the same buffer at molar ratio Aβ:huAChE 200:1, and stirred for 48 hours in a microtiter plate at room temperature. The fibrils obtained were characterized by Congo Red (CR) binding.
For the inhibition of β-amyloid aggregation, the compounds tested were used at the IC50 defined in the previous paragraph of the biological evaluation, 50 μM propidium iodide was used as reference [Inestrosa, N. C et al., J. Neuron, 1996, 16, 881-891].
To quantify the amount of fibrils aggregated, the binding to CR was done as described [Klunk, W E.; Pettegrew, J W.; Abraham, D J. J. Hystochem Cytochem., 1989, 8, 1293-1297]. Briefly, 5.5 μl aliquot of the aggregation mixture was added to 132 μl of a 25 μM CR solution (100 mM phosphate buffer pH 7.4, 150 mM NaCl), and incubated for 30 minutes at room temperature. Absorbance was measured at 480 and 540 nm and the molarity of aggregates calculated by CR(M)=(A540/25295)−(A480/46306).

T3 sequence (P22303 32-614, one chain of several): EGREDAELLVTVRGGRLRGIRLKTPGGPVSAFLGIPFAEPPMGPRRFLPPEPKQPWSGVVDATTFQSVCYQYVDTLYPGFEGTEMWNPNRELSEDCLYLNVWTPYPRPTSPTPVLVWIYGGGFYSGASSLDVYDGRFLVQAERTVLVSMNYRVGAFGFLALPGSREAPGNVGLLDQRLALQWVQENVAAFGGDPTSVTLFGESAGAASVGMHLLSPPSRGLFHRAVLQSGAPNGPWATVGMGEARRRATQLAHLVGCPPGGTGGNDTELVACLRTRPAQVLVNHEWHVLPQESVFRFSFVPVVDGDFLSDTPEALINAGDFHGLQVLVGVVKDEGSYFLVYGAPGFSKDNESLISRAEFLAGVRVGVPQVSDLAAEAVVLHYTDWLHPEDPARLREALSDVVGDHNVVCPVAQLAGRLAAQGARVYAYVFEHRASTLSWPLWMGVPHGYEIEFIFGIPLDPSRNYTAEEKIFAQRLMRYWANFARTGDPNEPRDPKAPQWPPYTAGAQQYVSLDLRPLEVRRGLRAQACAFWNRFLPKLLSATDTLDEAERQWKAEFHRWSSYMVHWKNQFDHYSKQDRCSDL
AChE peripheral site, sequence (P23795 other isoform, or with tags, fused parts or gaps): as the sequence (P23795 other isoform, or with tags, fused parts or gaps) above

On to `O=C(CCc1c[nH]c2ccccc12)NCCCCCCNc1c2c(nc3cc(Cl)ccc13)CCCC2` [Compound 3], for which the values for the IC50 (in series [1]; at BuChE from human serum) were 0.02 nM and 2.9 nM, respectively. Also, the Toxicity in series [2] came out at 100 µM. This compound also registered a Propidium competition on AChE peripheral site of 1000 µM. The “reduction in the β-amyloid-huAChE aggregation complex” value in series [3] is on record as 15%.
For `CN(CCCNC(=O)CCc1c[nH]c2ccccc12)CCCNc1c2c(nc3ccccc13)CCCC2` [Compound 8, N-(3-{[3-(1,2,3,4-tetrahydro-acridin-9-ylamino)-propyl]-methyl-amino}-propyl)-3-(1H-indol-3-yl)propionamide] the same measures were 147 nM, 0.03 nM, above 100 µM, 1000 µM and 17%.
